Experimental data taken from PubChem BioAssay (NCI).
Where “and” joins values, the source holds several entries; their conditions need not be identical. Equal values may be shown once.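 In this assay, cells in 96-well plates receive the compound at five concentrations for 48 hours. Endpoints are linearly interpolated between the surrounding concentrations. GI50 = concentration required for 50% inhibition of growth. TGI: total growth inhibition.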 Starred links: 1 amine or outer side, 2 acyl side, 3 side chain; linkers in the order of their positions; H or OH if unused. Positions of bridges follow the written chain, without caps; N, C: chain ends. Non-standard residues stand in square brackets, D forms with d. Residues, ends and D or L forms follow the SMILES beside them. Chains are numbered I, II in the order given. Actinocin(1to9) = Cc1c2oc3c(C)ccc(C(=O)[*:2])c3nc-2c(C(=O)[*:1])c(N)c1=O; NMeV = CN[CH](C(=O)O)C(C)C; Sar = CNCC(=O)O

What was measured:
Experiment in all cases: NCI-60 cell line screen, 48 h
HT29 colon = test system: HT29 colon
K-562 leukemia = test system: K-562 leukemia
MCF7 breast = test system: MCF7 breast
MDA-MB-231 breast = test system: MDA-MB-231 breast
MDA-MB-435 = test system: MDA-MB-435
OVCAR-5 ovarian = test system: OVCAR-5 ovarian
PC-3 prostate = test system: PC-3 prostate
SK-MEL-2 melanoma = test system: SK-MEL-2 melanoma
T-47D breast = test system: T-47D breast
UACC-257 melanoma = test system: UACC-257 melanoma
NCI-H23 lung = test system: NCI-H23 lung

Compound | TGI (HT29 colon) [µM] | TGI (K-562 leukemia) | TGI (MCF7 breast) [µM] | TGI (MDA-MB-231 breast) | TGI (MDA-MB-435) [µM] | TGI (OVCAR-5 ovarian) | TGI (PC-3 prostate) | TGI (SK-MEL-2 melanoma) [µM] | TGI (T-47D breast) [µM] | TGI (UACC-257 melanoma) [µM] | TGI (NCI-H23 lung) [µM] | GI50 (MCF7 breast) [µM] | GI50 (MDA-MB-231 breast) [µM] | GI50 (MDA-MB-435) [µM] | GI50 (NCI-H23 lung) [µM] | GI50 (OVCAR-5 ovarian) [µM] | GI50 (SK-MEL-2 melanoma) [µM] | GI50 (T-47D breast) [µM] | GI50 (UACC-257 melanoma) [µM]
CCOC(=O)C(/C(=N/S(=O)(=O)c1cc(C)c(Cl)cc1[S-])[n+]1ccc(N(C)C)cc1)=C(/O)c1ccc([N+](=O)[O-])cc1 | 55.4 | > 100 µM | > 100 | > 100 µM | > 100 | > 100 µM | 68.6 µM | 28.3 | > 100 | 25.3 | – | – | – | – | – | – | – | – | –
CC(C)(C)OC(=O)n1c2ccccc2c2c(=O)nc(N3CCCCC3)sc21 | > 100 | > 100 µM | – | > 100 µM | > 100 | > 100 µM | > 100 µM | > 100 | > 100 | > 100 | > 100 | – | – | – | – | – | – | – | –
O=C(O[C@@H](/C=C/c1ccccc1)P1(=O)N(Cc2ccccc2)[C@H]2CCCC[C@@H]2N1Cc1ccccc1)c1ccccc1 | > 100 | > 100 µM | 6.77 | 6.95 µM | > 100 | > 100 µM | 8.54 µM | 3.98 | 47.2 | 9.43 | 36 | – | – | – | – | – | – | – | –
O=c1[nH]c(Nc2ccc(Cl)c(C(F)(F)F)c2)nc2nc[nH]c12 | > 100 | > 100 µM | > 100 | > 100 µM | > 100 | > 100 µM | > 100 µM | 91.2 | > 100 | > 100 | > 100 | – | – | – | – | – | – | – | –
OC(c1ccccc1)(c1ccccc1)c1nccc2ccccc12 | > 100 | – | > 100 | > 100 µM | > 100 | > 100 µM | > 100 µM | – | > 100 | > 100 | 89.5 | – | – | – | – | – | – | – | –
Cc1c(N2C(=O)/C(=C/c3ccc(Cl)cc3)N=C2c2ccccc2)c(=O)n(-c2ccccc2)n1C | 79.8 | > 100 µM | > 100 | > 100 µM | 43.8 | > 100 µM | > 100 µM | 39.9 | > 100 | 42.8 | 78.2 | – | – | – | – | – | – | – | –
Nc1ncnc2c1sc1nc3ccccc3n12 | > 100 | > 100 µM | > 100 | > 100 µM | > 100 | > 100 µM | > 100 µM | > 100 | > 100 | > 100 | > 100 | – | – | – | – | – | – | – | –
Cc1coc2c1C[C@@]1(C)[C@H](CCC[C@@H]1C)[C@H]2O | > 100 | > 100 µM | 95.7 | 55.9 µM | 92.1 | > 100 µM | > 100 µM | – | 84.2 | 88.3 | > 100 | – | – | – | – | – | – | – | –
N#CC12Cc3cc4c(cc3-c3cccc(c31)CCN2C(=O)c1ccccc1)OCO4 (stereo not drawn) | > 100 | > 100 µM | – | – | – | > 100 µM | – | > 100 | – | > 100 | > 100 | – | – | – | – | – | – | – | –
c1ccc(-c2nnn3c2NC2=C(CCCC2)C3c2ccccc2)cc1 (stereo not drawn) | 28.4 | 29.2 µM | 51.9 | 64.6 µM | 20.8 | 36.9 µM | 34.3 µM | 36 | 49.9 | 52.2 | 69.4 | – | – | – | – | – | – | – | –
COc1ccc(C(=O)C2=NON3OC23C(=O)c2ccc(OC)cc2)cc1 (stereo not drawn) | 52.9 | 8.29 µM | – | – | – | 36.7 µM | – | 34.5 | – | 34.9 | 17.8 | – | – | – | – | – | – | – | –
COc1cc2oc(=O)ccc2cc1C(=O)CC(C)C | > 100 | > 100 µM | > 100 | > 100 µM | > 100 | > 100 µM | > 100 µM | > 100 | > 100 | > 100 | > 100 | – | – | – | – | – | – | – | –
Cn1cnc([N+](=O)[O-])c1Sc1nc(N)nc2c1ncn2C1OC(CO)C(O)C1O (stereo not drawn) | 33.6 | > 100 µM | – | > 100 µM | 29.7 | > 100 µM | > 100 µM | 21.1 | > 100 | > 100 | 41.4 | – | – | – | – | – | – | – | –
CN(C)c1ccc(C=Nc2ccc(-c3nc4ccccc4[nH]3)cc2)cc1 | > 100 | > 100 µM | > 100 | > 100 µM | > 100 | > 100 µM | > 100 µM | > 100 | > 100 | > 100 | > 100 | – | – | – | – | – | – | – | –
CCC(C)C1NC(=O)C(NC(=O)c2c3nc4c(C(=O)NC5C(=O)NC(C(C)CC)C(=O)N6CCCC6C(=O)N(C)CC(=O)N(C)C(C(C)C)C(=O)OC5C)ccc(C)c4oc-3c(C)c(=O)c2N)C(C)OC(=O)C(C(C)C)N(C)C(=O)CN(C)C(=O)C2CCCN2C1=O (stereo not drawn) (I: TIP[Sar][NMeV] / II: TIP[Sar][NMeV]; ester I:1-I:C, II:1-II:C; linker I:N-II:N via Actinocin(1to9); configuration not given here) | 11.5 | 0.0109 µM and 0.0132 µM | – | 0.156 µM and 0.481 µM | 0.0169 | 0.0273 µM and 0.0172 µM | 0.13 µM and 0.212 µM | 0.00277 | 0.0122 | 0.00726 | 0.0168 | – | – | – | – | – | – | – | –
Cn1c(=O)[nH]c2nncnc2c1=O | > 561 | > 519 µM | > 501 | – | – | > 625 µM | – | 312 | – | 302 | 420 | – | – | – | – | – | – | – | –
Cc1ccccc1N=Nc1c(O)c(S(=O)(=O)O)cc2cc(S(=O)(=O)O)ccc12 | > 100 | > 100 µM | > 100 | > 100 µM | > 100 | > 100 µM | > 100 µM | > 100 | > 100 | > 100 | > 100 | – | – | – | – | – | – | – | –
Clc1ccccc1/C=c1\nc(-c2ccccc2)n2c1nc1ccccc12 | > 100 | > 100 µM | > 100 | 73.1 µM | > 100 | > 100 µM | 27.9 µM | > 100 | > 100 | > 100 | 47.8 | – | – | – | – | – | – | – | –
CC(=O)OC1CC[C@@]2(C)C(=CC[C@@H]3[C@@H]2CC[C@]2(C)Nc4nn(S(C)(=O)=O)cc4C[C@@H]32)C1 (stereo partly drawn) | 25.4 | > 100 µM | 40.7 | > 100 µM | 50.1 | > 100 µM | > 100 µM | 58.8 | 54.5 | – | > 100 | – | – | – | – | – | – | – | –
CC(C)(C)OC(=O)NC(CCCCNC(=O)OCc1ccccc1)C(=O)NCCNc1ccc(NCCNC(=O)C(CCCCNC(=O)OCc2ccccc2)NC(=O)OC(C)(C)C)c2c1C(=O)c1ccccc1C2=O (stereo not drawn) | > 100 | > 100 µM | 27.2 | 38.2 µM | > 100 | > 100 µM | > 100 µM | 20.5 | 28 | > 100 | > 100 | – | – | – | – | – | – | – | –
O=C(CSc1nc2ccc([N+](=O)[O-])cc2s1)c1ccc2ccccc2c1 | > 100 | > 100 µM | > 100 | > 100 µM | > 100 | > 100 µM | > 100 µM | > 100 | > 100 | > 100 | > 100 | – | – | – | – | – | – | – | –
OCc1cn(C(c2ccccc2)(c2ccccc2)c2ccccc2)cn1 | > 100 | > 100 µM | – | > 100 µM | > 100 | > 100 µM | > 100 µM | > 100 | > 100 | > 100 | > 100 | – | – | – | – | – | – | – | –
O=C(O)c1ccc(C(=O)c2ccccc2C(=O)O)cc1C(=O)O | > 100 | > 100 µM | > 100 | > 100 µM | > 100 | > 100 µM | > 100 µM | > 100 | > 100 | > 100 | > 100 | – | – | – | – | – | – | – | –
Nc1c(C(=O)O)nnc2cc(Cl)c(Cl)cc12 | > 100 | > 100 µM | > 100 | > 100 µM | > 100 | > 100 µM | > 100 µM | > 100 | > 100 | > 100 | > 100 | – | – | – | – | – | – | – | –
COc1nc2[nH]ccc2c(=O)[nH]1 | > 100 | > 100 µM | – | – | – | > 100 µM | – | > 100 | – | > 100 | > 100 | – | – | – | – | – | – | – | –
COCC1CCCN1c1ccc(C=N/C(C#N)=C(\N)C#N)cc1 (stereo not drawn) | – | – | > 100 | > 100 µM | > 100 | > 100 µM | – | > 100 | > 100 | > 100 | > 100 | 33.4 | 18.7 | > 100 | > 100 | > 100 | > 100 | > 100 | > 100
